US20240308960A1 (Sumitomo Pharma Co., Ltd., priority 2021, published 2024)

target: T1, Human orexin receptor type 2 (Homo sapiens, UniProt O43614); test: Test Example 1: agonist activity for orexin receptor type 2 (aequorin luminescence, intracellular calcium mobilization); details: compound 10 μm; CHO cells transiently expressing human orexin receptor type 2 and apoaequorin; relative percentage of luminescence for the luminescence (100%) of Orexin A (100 μM)
T1 sequence (O43614 1-444): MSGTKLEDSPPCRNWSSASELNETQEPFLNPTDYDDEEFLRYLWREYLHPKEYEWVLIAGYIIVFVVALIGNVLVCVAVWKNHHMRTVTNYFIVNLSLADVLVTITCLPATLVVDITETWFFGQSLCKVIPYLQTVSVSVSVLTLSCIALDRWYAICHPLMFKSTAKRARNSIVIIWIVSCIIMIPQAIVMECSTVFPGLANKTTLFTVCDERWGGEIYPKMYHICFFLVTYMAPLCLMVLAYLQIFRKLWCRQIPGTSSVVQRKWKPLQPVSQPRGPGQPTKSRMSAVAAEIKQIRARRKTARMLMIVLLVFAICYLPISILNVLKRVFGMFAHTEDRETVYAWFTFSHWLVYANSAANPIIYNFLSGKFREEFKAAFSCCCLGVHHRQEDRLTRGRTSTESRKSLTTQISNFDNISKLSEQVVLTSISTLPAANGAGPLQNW
Description: Human orexin receptor type 2 and apoaequorin were transiently expressed in CHO cells, and the agonist activity was evaluated based on intracellular calcium mobilization with ligand stimulation. The CHO cells transiently-expressed human orexin receptor type 2 and apoaequorin were seeded on a 384-well plate by 2,000 cells/well, and then incubated for 16-22 hours. After the plate was returned to room temperature, Coelenterazine hcp (final concentration: 1 μM) was added to the plate, and the plate was allowed to stand at room temperature for 2 hours. And then, Orexin A or each test compound was added to the plate, and the luminescence of the cells was measured with FDSS7000 (Hamamatsu Photonics K. K.), wherein Orexin A and each test compound were dissolved in DMSO (final concentration: 0.1%), and diluted with a buffer (Hanks, 20 mM HEPES, 0.1% BSA). The agonist activity of each test compound for orexin receptor type 2 was calculated as relative percentage of luminescence for the luminescence (100%) of Orexin A (100 μM).

SMILES	Agonist Activity (%)
CC(C)N1CCN(c2cccc(Cl)c2NC(=O)N2CCC(C)(c3noc([C@H]4C[C@H]4C)n3)CC2)CC1 [Example 117, N-{2-chloro-6-[4-(propan-2-yl)piperazin-1-yl]phenyl}-4-methyl-4-{5-[(1S,2R)-2-methylcyclopropyl]-1,2,4-oxadiazol-3-yl}piperidine-1-carboxamide]	158
Cc1ccc(C2CCN(C(=O)Nc3c(F)cccc3C3=CCN(C)C3)CC2)cc1 [Example 140, N-[2-fluoro-6-(1-methyl-2,5-dihydro-1H-pyrrol-3-yl)phenyl]-4-(4-methylphenyl)piperidine-1-carboxamide]	75
CCN1CCN(c2ccccc2NC(=O)N2CCC(C)(c3ccccc3)CC2)CC1.Cl [Example 4, N-[2-(4-ethylpiperazin-1-yl)phenyl]-4-methyl-4-phenylpiperidine-1-carboxamide hydrochloride]	125
Cc1ccc(C2CCN(C(=O)Nc3ccccc3N3CCN(C(C)C)CC3)CC2)c(F)c1 [Example 18, 4-(2-fluoro-4-methylphenyl)-N-{2-[4-(propan-2-yl)piperazin-1-yl]phenyl}piperidine-1-carboxamide]	128
CC1(C#N)CCN(C(=O)Nc2c(Cl)cccc2C2=CCN(C3CCC3)CC2)CC1 [Example 159, N-[2-chloro-6-(1-cyclobutyl-1,2,3,6-tetrahydropyridin-4-yl)phenyl]-4-cyano-4-methylpiperidine-1-carboxamide]	150
CC(C)N1CCN(c2cccc(Cl)c2NC(=O)N2CCC(C)(c3noc(C4(C(F)(F)F)CC4)n3)CC2)CC1 [Example 107, N-{2-chloro-6-[4-(propan-2-yl)piperazin-1-yl]phenyl}-4-methyl-4-{5-[1-(trifluoromethyl)cyclopropyl]-1,2,4-oxadiazol-3-yl}piperidine-1-carboxamide]	163
CC(C)c1nc(C2(C)CCN(C(=O)Nc3c(F)cccc3N3CCN(C(C)C)CC3)CC2)no1 [Example 20, N-{2-fluoro-6-[4-(propan-2-yl)piperazin-1-yl]phenyl}-4-methyl-4-[5-(propan-2-yl)-1,2,4-oxadiazol-3-yl]piperidine-1-carboxamide]	111
Cc1ccc(C2CCN(C(=O)Nc3c(F)cccc3N3C4CCC3CN(C(C)C)C4)CC2)cc1 [Example 161, N-{2-Fluoro-6-[3-(propan-2-yl)-3,8-diazabicyclo[3.2.1]octan-8-yl]phenyl}-4-(4-methylphenyl)piperidine-1-carboxamide]	90
Cc1ccc(C2CCN(C(=O)Nc3c(F)cccc3C3=CCN(C(C)CF)CC3)CC2)cc1 (stereo not drawn) [Example 134, N-{2-fluoro-6-[1-(1-fluoropropan-2-yl)-1,2,3,6-tetrahydropyridin-4-yl]phenyl}-4-(4-methylphenyl)piperidine-1-carboxamide]	135
Cc1ccc(C2CCN(C(=O)Nc3c(F)cccc3-c3cnn(C4CC4)c3)CC2)cc1 [Example 58, N-[2-(1-cyclopropyl-1H-pyrazol-4-yl)-6-fluoro-phenyl]-4-(4-methylphenyl)piperidine-1-carboxamide]	71
Cc1ccc(C2CCN(C(=O)Nc3c(F)cccc3C3=CCN(C(C)C)CC3)CC2)cc1 [Example 42, N-{2-fluoro-6-[1-(propan-2-yl)-1,2,3,6-tetrahydropyridin-4-yl]phenyl}-4-(4-methylphenyl)piperidine-1-carboxamide]	128
Cc1ccc(C2CCN(C(=O)Nc3c(Cl)cccc3C3=CCN(C(C)C)CC3)CC2)cc1 [Example 132, N-{2-chloro-6-[1-(propan-2-yl)-1,2,3,6-tetrahydropyridin-4-yl]phenyl}-4-(4-methylphenyl)piperidine-1-carboxamide]	171
CC(C)N1CCN(c2cccc(F)c2NC(=O)N2CCC(C)(c3noc(C4CCCC4)n3)CC2)CC1 [Example 73, 4-(5-cyclopentyl-1,2,4-oxadiazol-3-yl)-N-{2-fluoro-6-[4-(propan-2-yl)piperazin-1-yl]phenyl}-4-methylpiperidine-1-carboxamide]	141
CC(C)N1CCN(c2cccc(Cl)c2NC(=O)N2CCC(C)(c3noc(C4CC4(C)C)n3)CC2)CC1 (stereo not drawn) [Example 106, N-{2-chloro-6-[4-(propan-2-yl)piperazin-1-yl]phenyl}-4-[5-(2,2-dimethylcyclopropyl)-1,2,4-oxadiazol-3-yl]-4-methylpiperidine-1-carboxamide]	185
Cc1cc(C2(C)CCN(C(=O)Nc3c(Cl)cccc3N3CCN(C(C)C)CC3)CC2)no1 [Example 84, N-{2-chloro-6-[4-(propan-2-yl)piperazin-1-yl]phenyl}-4-methyl-4-(5-methyl-1,2-oxazol-3-yl)piperidine-1-carboxamide]	110
CCN1CCN(c2ccccc2NC(=O)N2CCC(c3ccc(OC)cc3)CC2)CC1 [Example 1, N-[2-(4-Ethylpiperazin-1-yl)phenyl]-4-(4-methoxyphenyl)piperidine-1-carboxamide]	77
CC(C)N1CCN(c2cccc(Cl)c2NC(=O)N2CCc3ccccc3CC2)CC1 [Example 97, N-{2-chloro-6-[4-(propan-2-yl)piperazin-1-yl]phenyl}-1,2,4,5-tetrahydro-3H-3-benzazepine-3-carboxamide]	69
CC(C)N1CCN(c2cccc(F)c2NC(=O)N2CCC(C)(c3noc(C(F)(F)F)n3)CC2)CC1 [Example 24, N-{2-fluoro-6-[4-(propan-2-yl)piperazin-1-yl]phenyl}-4-methyl-4-[5-(trifluoromethyl)-1,2,4-oxadiazol-3-yl]piperidine-1-carboxamide]	127
CC(C)N1CC=C(c2cccc(Cl)c2NC(=O)N2CCC(C)(C#N)CC2)CC1 [Example 158, N-{2-chloro-6-[1-(propan-2-yl)-1,2,3,6-tetrahydropyridin-4-yl]phenyl}-4-cyano-4-methylpiperidine-1-carboxamide]	133
COc1cccc(N2CCN(C(C)C)CC2)c1NC(=O)N1CCC(C)(c2noc(C)n2)CC1 [Example 23, N-{2-methoxy-6-[4-(propan-2-yl)piperazin-1-yl]phenyl}-4-methyl-4-(5-methyl-1,2,4-oxadiazol-3-yl)piperidine-1-carboxamide]	92
CCCN1CCCN(c2ccccc2NC(=O)N2CCC(C)(c3noc(C4CC4)n3)CC2)CC1 [Example 157, 4-(5-cyclopropyl-1,2,4-oxadiazol-3-yl)-4-methyl-N-[2-(4-propyl-1,4-diazepan-1-yl)phenyl]piperidine-1-carboxamide]	94
CC(C)N1CCN(c2ccccc2NC(=O)N2CCC(C#N)(c3ccccc3)CC2)CC1.Cl [Example 6, 4-cyano-4-phenyl-N-{2-[4-(propan-2-yl)piperazin-1-yl]phenyl}piperidine-1-carboxamide]	151
Cc1nc(C2(C)CCN(C(=O)Nc3c(F)cccc3N3CCN(C(C)C)CC3)CC2)no1 [Example 22, N-{2-fluoro-6-[4-(propan-2-yl)piperazin-1-yl]phenyl}-4-methyl-4-(5-methyl-1,2,4-oxadiazol-3-yl)piperidine-1-carboxamide]	97
CCN1C[C@@H]2C[C@H]1CN2c1cccc(F)c1NC(=O)N1CCC(C)(c2noc(C3CC3)n2)CC1 [Example 149, 4-(5-cyclopropyl-1,2,4-oxadiazol-3-yl)-N-{2-[(1S,4S)-5-ethyl-2,5-diazabicyclo[2.2.1]heptan-2-yl]-6-fluorophenyl}-4-methylpiperidine-1-carboxamide]	146
CC(C)N1CC=C(c2cccc(F)c2NC(=O)N2CCC(C)(c3cc(C4CC4)on3)CC2)CC1 [Example 55, 4-(5-cyclopropyl-1,2-oxazol-3-yl)-N-{2-fluoro-6-[1-(propan-2-yl)-1,2,3,6-tetrahydropyridin-4-yl]phenyl}-4-methylpiperidine-1-carboxamide]	154
CC(C)N1CCN(c2ccccc2NC(=O)N2CCC(C)(c3nc(-c4ccccc4)no3)CC2)CC1 [Example 12, 4-methyl-4-(3-phenyl-1,2,4-oxadiazol-5-yl)-N-{2-[4-(propan-2-yl)piperazin-1-yl]phenyl}piperidine-1-carboxamide]	123
CC(C)N1CCC(c2cccc(F)c2NC(=O)N2CCC(C)(c3cc(C4CC4)on3)CC2)CC1 [Example 53, 4-(5-cyclopropyl-1,2-oxazol-3-yl)-N-{2-fluoro-6-[1-(propan-2-yl)piperidin-4-yl]phenyl}-4-methylpiperidine-1-carboxamide]	140
CC(C)N1CCC(Oc2cccc(Cl)c2NC(=O)N2CCC(C)(c3noc(C4CC4)n3)CC2)C1 (racemic) [Example 110, Rac-N-(2-chloro-6-{[1-(propan-2-yl)pyrrolidin-3-yl]oxy}phenyl)-4-(5-cyclopropyl-1,2,4-oxadiazol-3-yl)-4-methylpiperidine-1-carboxamide]	148
Cc1ccc(C2CCN(C(=O)Nc3ccccc3[C@@H]3CN[C@@H](C(C)C)CO3)CC2)cc1 [Example 166, 4-(4-Methylphenyl)-N-{2-[(2R,5S)-5-(propan-2-yl)morpholin-2-yl]phenyl}piperidine-1-carboxamide]	72
COc1cccc(C2CCN(C(C)C)CC2)c1NC(=O)N1CCC(c2ccc(C)cc2)CC1 [Example 48, N-{2-methoxy-6-[1-(propan-2-yl)piperidin-4-yl]phenyl}-4-(4-methylphenyl)piperidine-1-carboxamide]	146
